In patent US20240261294A1, “METHOD FOR TREATING IDH INHIBITOR-RESISTANT SUBJECTS” (Eli Lilly and Company, priority 2021, published 2024):
Positions count from the first letter of the chain named. Where two headings read alike, the source gives them in different places.

Target: T1, IDH2 R140Q + Q316E trans (Homo sapiens, UniProt P48735, Q316E/R140Q)
T1 construct: expressed in transfected cells; host or cells: U-87 MG
T1 sequence (P48735 40-452 R140Q): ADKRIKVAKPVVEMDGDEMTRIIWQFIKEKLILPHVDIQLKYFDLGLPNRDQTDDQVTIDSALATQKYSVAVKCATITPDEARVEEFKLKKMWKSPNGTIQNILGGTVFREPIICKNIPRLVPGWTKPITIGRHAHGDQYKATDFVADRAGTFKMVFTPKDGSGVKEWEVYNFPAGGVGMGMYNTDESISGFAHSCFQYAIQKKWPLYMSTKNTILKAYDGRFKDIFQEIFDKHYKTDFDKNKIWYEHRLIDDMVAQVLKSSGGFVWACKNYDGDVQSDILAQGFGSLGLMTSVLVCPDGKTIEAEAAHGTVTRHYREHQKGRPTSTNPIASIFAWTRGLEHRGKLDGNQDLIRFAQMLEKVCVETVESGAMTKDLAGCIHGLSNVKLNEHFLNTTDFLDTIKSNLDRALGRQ
T1 sequence (P48735 40-452 Q316E): T1 sequence (P48735 40-452 R140Q) with Q101R, Q277E
Assay: Inhibition of 2-HG production in IDH2 mutant U-87 MG cells
Format: cell-based

C=CC(=O)N1CCN([C@@H](CC2CC2)c2ccc([C@H](C)Nc3ncc4c(n3)N(CC)C(=O)OC4)cc2)CC1 [Compound A, 7-[[(1S)-1-[4-[(1S)-2-cyclopropyl-1-(4-prop-2-enoylpiperazin-1-yl)ethyl]phenyl]ethyl]amino]-1-ethyl-4H-pyrimido[4,5-d][1,3]oxazin-2-one]
IC50 (IDH2 R140Q + Q316E trans, 72 hours incubation, 12.5K cells/well, 150 μl media/well, read-out: IC50, inhibition of 2-HG production): 5.84 nM | IC50 (IDH2 R140Q_Q316E trans, 16 hours incubation, 50K cells/well, 100 μl media/well, read-out: Relative IC50 (nM) Mean, inhibition of 2-HG production): 23 nM
